pIC50: −log10 of the molar value.
Target: Arginine--tRNA ligase (Staphylococcus aureus)
Assay: Inhibitory activity against cognate Staphylococcus aureus Arginyl-tRNA synthetase

pIC50: 8.35
Structure (SMILES): N=C(N)NCCC[C@H](N)C(=O)NS(=O)(=O)OC[C@H]1O[C@@H](n2cnc3c(N)ncnc32)[C@H](O)[C@@H]1O [Aminoalkyl adenylate and aminoacyl sulfamate analogue]

Source: BindingDB's records for doi:10.1016/s0960-894x(00)00360-7 (Smithkline Beecham Pharmaceuticals, 2000)
